Reference: publication PMC11284792, “Backbone-Determined Antiarrhythmic Structure–Activity Relationships for a Mirror Image, Oligomeric Depsipeptide Natural Product” (Journal of Medicinal Chemistry, 2024)
Entries after “also recorded” stand apart in the source; their conditions may differ. Where two headings read alike, the source gives them in different places.

Columns and labels:
[1] = amide bond, 24-membered ring, PyBOP/DIPEA, DMF, 3 steps
[2] = target: T1, RyR2 (Mus musculus, UniProt E9Q401); experiment: Calcium spark assay in saponin-permeabilized ventricular cardiomyocytes; format: cell-based, mouse (C57BL/6J); details: for Normalized Calcium Leak: CSV supplement, Series 2-5; for Normalized Calcium Leak / Calcium spark Amplitude (normalized to vehicle) / Calcium spark Leak (normalized to vehicle) / Calcium spark Mass (normalized to vehicle) / Calcium spark Frequency (normalized to vehicle): 25 μM drug, normalized to vehicle (DMSO), mean ± standard deviation; for Calcium spark Amplitude (normalized to vehicle) / Calcium spark Leak (normalized to vehicle) / Calcium spark Mass (normalized to vehicle) / Calcium spark Frequency (normalized to vehicle): Supplement Tables 2-3; for Calcium spark Amplitude (normalized to vehicle) / Calcium spark Leak (normalized to vehicle) / Calcium spark Mass (normalized to vehicle): permeabilized murine cardiomyocytes; for Calcium spark Frequency (normalized to vehicle): permeabilized murine left ventricular myocytes, 15 min incubation; for Inhibition of RyR2-mediated calcium sparks (in words): spark frequency after 15 min incubation with 25 μM compound, permeabilized myocytes
T1 construct: ventricular cardiomyocytes were isolated from C57Bl/6J mice, adhered to laminin-coated glass bottom culture dishes, permeabilized with saponin; endogenous in cells; host or cells: left ventricular cardiomyocytes freshly isolated from C57BL/6J mice, saponin-permeabilized
Description: With a wide range of ent-verticilide analogs in hand, organized by five series that systematically change the backbone functionality without modifying the alternating methyl and pentyl side chains, we pursued their evaluation in the calcium sparks assay for insight into potential antiarrhythmic activity.[3] Left ventricular myocytes were isolated from C57BL/6J mice and subjected to brief incubation with saponin, which permeabilizes the sarcolemma and enables equivalent access of compounds to RyR2, irrespective of their permeability.[14] Cardiomyocytes were then incubated in an internal solution designed to promote spontaneous RyR2-mediated calcium release events, known as sparks,[34] and the spark frequency was recorded following a 15 min incubation with 25 μM of each compound. Figure 3 summarizes these findings; no inhibition of RyR2 (lack of activity) is reflected as a value of 1 (dotted line). […] In that study, we noted that the 18-membered oligomer was more forgiving. […] Series 4–5 analogs produced nearly flat SAR, with no notable inhibition by any of the analogs.
Figure 3 RyR2-mediated calcium spark frequency in permeabilized left ventricular myocytes incubated with 25 μM drug for 15 min. All data normalized to vehicle (DMSO) condition. […] (A) *P < 0.0001 vs vehicle. N = 29 (2), 102 (5), 105 (5), 108 (5), 119 (4), and 87 cells (mice). Previously reported in Johnston et al. ACS Med. Chem. Lett., 2022, 13(11), 1755–1762. (B) *P < 0.0001 vs vehicle. # P = 0.00041 vs vehicle. N = 38, 46, 54, 50, and 50 cells, respectively, from 2 mice. (C) *P < 0.0001 vs vehicle. # P = 0.034 vs vehicle. N = 79 (4), 58 (3), 79 (4), 80 (5), and 91 (5) cells (mice). (D) P > 0.05 for all groups vs vehicle. N = 66 (4), 42 (2), 37 (2), 38 (2), 43(2), and 37 (2) cells (mice). (E) *P < 0.0001 vs vehicle. N = 66 (4), 85 (5), 93 (5), 100 (5), 89 (5), and 67 (4) cells (mice).
Calcium spark measurements were made, as previously described.[5] Briefly, ventricular cardiomyocytes were isolated from C57Bl/6J mice, adhered to laminin-coated glass bottom culture dishes, permeabilized with saponin, and incubated with an internal solution containing the calcium sensitive dye, Fluo-4. Elementary spark recordings were made using an Olympus inverted microscope equipped with a solid-state diode laser at 488 nm for excitation, 40× silicone objective (1.25 NA), and Hamamatsu CMOS camera for detection. Spark detection analysis was performed using SparkMaster2.[37]
Statistical analysis was carried out in R using a hierarchical clustering model to cluster data by experiment and account for mouse-to-mouse variability.[38] A cutoff value of 0.05 was used as the threshold to reject the null hypothesis. The numbers of cells and replicates (mice) are indicated in the figure legend for each compound.
Johnston et al. Supporting Information […]
of 0.05 was used as the threshold to reject the null hypothesis.
Safety: No unexpected or unusually high safety hazards were encountered.
Biological Experiment Data: Calcium spark parameters
For all series, assay is run with 25 μM solution of drug. Values are normalized to the vehicle (DMSO) condition and reported as mean ± standard deviation. Statistical comparisons were made using a hierarchical clustering model with Bonferroni correction. Adjusted p-values < 0.05 vs vehicle are indicated with an asterisk. Each mouse was an independent experiment, the replicates are listed as n (cells).
Supplement Table 1. Calcium spark parameters from murine cardiomyocytes for ent-verticilide and series 1 analogs.
Supplement Table 2. Calcium spark parameters from murine cardiomyocytes for series 2 analogs.
Supplement Table 3. Calcium spark parameters from murine cardiomyocytes for series 3 analogs. […]
Cardiovasc. Res.

T1 sequence (E9Q401 whole entry): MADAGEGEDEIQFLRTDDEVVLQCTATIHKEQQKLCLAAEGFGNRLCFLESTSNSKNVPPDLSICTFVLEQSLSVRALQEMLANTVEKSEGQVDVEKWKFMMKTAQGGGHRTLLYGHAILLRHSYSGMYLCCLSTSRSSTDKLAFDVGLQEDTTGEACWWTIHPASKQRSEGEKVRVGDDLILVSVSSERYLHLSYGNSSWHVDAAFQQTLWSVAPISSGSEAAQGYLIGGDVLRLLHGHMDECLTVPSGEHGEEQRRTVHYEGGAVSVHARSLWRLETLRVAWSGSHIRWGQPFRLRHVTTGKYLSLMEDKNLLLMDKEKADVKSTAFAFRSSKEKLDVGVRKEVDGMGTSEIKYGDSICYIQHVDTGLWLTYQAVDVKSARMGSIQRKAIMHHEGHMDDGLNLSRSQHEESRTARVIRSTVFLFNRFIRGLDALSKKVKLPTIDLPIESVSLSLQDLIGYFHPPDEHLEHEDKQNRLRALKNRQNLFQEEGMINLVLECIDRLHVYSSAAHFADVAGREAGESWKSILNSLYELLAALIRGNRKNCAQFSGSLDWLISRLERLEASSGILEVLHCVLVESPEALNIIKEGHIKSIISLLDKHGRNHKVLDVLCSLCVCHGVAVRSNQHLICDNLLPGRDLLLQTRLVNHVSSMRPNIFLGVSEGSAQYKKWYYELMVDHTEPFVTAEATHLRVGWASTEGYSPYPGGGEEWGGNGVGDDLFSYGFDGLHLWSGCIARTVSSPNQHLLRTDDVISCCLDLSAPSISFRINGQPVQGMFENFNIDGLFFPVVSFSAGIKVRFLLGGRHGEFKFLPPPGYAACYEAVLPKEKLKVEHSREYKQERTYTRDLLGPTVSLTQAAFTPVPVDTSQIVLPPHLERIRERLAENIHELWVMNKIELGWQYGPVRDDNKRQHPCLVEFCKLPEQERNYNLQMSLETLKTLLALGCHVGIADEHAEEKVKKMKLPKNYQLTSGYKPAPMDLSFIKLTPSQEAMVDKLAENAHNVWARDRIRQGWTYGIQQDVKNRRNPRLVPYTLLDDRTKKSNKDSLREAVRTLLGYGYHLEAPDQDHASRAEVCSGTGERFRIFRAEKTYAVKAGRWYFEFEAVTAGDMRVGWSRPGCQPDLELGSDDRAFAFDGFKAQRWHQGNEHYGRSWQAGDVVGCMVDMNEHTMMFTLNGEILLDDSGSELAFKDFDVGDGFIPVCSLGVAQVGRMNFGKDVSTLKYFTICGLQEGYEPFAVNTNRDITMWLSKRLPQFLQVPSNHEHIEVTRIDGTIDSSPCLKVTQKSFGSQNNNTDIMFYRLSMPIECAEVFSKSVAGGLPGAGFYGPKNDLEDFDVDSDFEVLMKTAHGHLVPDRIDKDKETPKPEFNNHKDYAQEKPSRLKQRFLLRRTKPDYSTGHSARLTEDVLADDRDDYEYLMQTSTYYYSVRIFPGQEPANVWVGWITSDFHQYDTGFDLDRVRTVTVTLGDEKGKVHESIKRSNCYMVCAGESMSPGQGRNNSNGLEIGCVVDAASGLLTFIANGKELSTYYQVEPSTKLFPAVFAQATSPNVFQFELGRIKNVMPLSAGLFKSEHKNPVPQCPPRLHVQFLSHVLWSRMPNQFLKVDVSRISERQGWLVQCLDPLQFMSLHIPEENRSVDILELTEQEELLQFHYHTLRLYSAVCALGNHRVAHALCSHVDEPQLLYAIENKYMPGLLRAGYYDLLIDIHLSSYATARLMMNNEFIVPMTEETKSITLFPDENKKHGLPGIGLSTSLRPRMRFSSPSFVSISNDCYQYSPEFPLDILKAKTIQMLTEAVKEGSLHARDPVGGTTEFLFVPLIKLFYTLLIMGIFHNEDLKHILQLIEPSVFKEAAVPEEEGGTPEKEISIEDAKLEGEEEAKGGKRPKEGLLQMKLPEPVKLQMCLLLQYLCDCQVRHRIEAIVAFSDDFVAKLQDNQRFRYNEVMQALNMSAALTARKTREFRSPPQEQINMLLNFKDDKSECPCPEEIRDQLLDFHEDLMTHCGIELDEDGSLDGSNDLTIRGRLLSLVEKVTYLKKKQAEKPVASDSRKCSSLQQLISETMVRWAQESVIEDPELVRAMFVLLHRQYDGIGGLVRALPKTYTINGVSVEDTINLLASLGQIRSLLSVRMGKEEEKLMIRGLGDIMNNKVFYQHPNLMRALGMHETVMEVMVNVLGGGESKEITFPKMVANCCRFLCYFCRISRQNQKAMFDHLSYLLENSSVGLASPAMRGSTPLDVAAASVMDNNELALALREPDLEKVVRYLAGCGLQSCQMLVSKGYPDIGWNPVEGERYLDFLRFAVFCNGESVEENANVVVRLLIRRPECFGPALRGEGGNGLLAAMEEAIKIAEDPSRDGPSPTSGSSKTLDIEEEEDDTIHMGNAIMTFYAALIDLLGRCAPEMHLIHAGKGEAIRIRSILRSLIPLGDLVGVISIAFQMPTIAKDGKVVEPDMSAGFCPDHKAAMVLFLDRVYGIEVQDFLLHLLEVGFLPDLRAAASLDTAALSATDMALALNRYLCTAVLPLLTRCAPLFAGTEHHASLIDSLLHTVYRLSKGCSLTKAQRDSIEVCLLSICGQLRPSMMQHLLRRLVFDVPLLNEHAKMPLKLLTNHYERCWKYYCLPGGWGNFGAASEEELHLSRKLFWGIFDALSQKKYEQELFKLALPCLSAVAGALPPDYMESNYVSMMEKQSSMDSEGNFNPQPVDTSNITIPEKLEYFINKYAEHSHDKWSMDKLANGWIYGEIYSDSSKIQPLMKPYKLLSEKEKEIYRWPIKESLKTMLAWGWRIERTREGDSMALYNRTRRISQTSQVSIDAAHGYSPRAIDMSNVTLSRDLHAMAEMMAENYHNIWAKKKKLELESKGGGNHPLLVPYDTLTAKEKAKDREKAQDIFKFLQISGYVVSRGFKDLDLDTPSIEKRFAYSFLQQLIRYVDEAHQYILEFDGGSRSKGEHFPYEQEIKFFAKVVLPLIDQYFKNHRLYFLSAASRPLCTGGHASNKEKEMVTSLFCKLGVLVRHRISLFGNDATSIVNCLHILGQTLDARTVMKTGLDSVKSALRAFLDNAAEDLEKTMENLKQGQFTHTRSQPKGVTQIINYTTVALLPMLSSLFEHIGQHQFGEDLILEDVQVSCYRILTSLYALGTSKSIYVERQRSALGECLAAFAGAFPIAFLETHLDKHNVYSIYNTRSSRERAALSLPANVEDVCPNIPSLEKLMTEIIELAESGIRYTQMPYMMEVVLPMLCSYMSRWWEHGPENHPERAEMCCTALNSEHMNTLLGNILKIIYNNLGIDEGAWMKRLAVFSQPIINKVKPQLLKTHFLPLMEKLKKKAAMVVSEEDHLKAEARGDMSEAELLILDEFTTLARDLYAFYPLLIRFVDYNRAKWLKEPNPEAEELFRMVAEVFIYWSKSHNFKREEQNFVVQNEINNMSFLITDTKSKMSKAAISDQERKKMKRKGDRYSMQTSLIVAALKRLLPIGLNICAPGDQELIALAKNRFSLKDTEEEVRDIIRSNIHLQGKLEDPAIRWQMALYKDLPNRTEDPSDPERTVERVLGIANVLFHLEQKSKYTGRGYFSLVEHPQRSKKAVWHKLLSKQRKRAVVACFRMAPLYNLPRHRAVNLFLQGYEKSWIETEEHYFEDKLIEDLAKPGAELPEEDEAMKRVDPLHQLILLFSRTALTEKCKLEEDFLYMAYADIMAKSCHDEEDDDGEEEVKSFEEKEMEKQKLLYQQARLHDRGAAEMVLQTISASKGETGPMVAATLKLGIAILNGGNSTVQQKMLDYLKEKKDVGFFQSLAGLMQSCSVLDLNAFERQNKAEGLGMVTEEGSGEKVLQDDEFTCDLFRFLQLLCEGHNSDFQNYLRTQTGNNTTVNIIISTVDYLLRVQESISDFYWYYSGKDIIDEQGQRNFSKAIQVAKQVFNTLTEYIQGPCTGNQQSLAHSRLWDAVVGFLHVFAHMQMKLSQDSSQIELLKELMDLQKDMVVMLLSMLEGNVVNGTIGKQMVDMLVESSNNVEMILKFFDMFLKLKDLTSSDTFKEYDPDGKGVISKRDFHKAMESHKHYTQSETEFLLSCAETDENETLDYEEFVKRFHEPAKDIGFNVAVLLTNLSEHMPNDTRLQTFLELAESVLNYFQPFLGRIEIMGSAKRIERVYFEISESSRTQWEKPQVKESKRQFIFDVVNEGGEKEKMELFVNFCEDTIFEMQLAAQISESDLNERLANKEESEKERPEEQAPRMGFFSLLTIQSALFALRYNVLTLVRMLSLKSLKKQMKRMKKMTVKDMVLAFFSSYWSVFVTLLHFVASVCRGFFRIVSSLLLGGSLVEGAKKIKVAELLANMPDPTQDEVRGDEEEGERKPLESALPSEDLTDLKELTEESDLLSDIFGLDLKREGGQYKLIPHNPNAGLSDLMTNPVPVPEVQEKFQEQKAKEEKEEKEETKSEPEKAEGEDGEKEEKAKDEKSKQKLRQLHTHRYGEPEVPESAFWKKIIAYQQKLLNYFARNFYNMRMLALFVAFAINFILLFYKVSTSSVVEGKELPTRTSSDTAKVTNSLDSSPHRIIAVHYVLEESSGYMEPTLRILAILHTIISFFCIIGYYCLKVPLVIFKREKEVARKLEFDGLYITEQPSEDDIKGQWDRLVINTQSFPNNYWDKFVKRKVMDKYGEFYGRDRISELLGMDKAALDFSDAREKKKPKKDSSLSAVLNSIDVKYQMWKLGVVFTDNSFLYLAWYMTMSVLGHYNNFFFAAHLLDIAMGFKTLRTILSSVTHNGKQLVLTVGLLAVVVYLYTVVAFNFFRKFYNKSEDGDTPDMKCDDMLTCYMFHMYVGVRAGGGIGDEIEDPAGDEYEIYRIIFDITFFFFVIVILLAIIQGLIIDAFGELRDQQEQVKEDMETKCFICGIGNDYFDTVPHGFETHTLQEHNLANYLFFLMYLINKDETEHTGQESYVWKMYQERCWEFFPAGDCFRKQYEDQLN

Row | Substance | Normalized Calcium Leak [2] | Calcium spark Amplitude (normalized to vehicle) [2] | Calcium spark Leak (normalized to vehicle) [2] | Calcium spark Mass (normalized to vehicle) [2] | Calcium spark Frequency (normalized to vehicle) [2] | also measured
1 | (3R,6S,9R,12S,15R,18S,21R,24S)-1,3,4,7,9,10,13,15,16,19,21,22-dodecamethyl-6,12,18,24-tetrapentyl-1,4,7,10,13,16,19,22-octaazacyclotetracosan-2,5,8,11,14,17,20,23-octaone | – | – | – | – | – | ring closure, yield after HPLC [1]: 8%
2 | (3R,6S,9R,12S,15R,18S,21R,24S)-1,3,4,7,9,10,13,15,16,19,21-undecamethyl-6,12,18,24-tetrapentyl-1,4,7,10,13,16,19,22-octaazacyclotetracosan-2,5,8,11,14,17,20,23-octaone | – | – | – | – | – | ring closure, yield after HPLC ([1]; 4.6 mM): 7.5%
3 | (3R,6S,9R,12S,15R,18S,21R,24S)-1,3,4,7,9,10,13,15,16,19,21-undecamethyl-6,12,18,24-tetrapentyl-1,4,7,10,13,16,19,22-octaazacyclotetracosan-2,5,8,11,14,17,20,23-octaone [4.2] | 1.35 ± 1.14 | – | – | – | – | –
4 | (3R,6S,9R,12S,15R,18S,21R,24S)-1,3,4,7,9,13,15,19,21-nonamethyl-6,12,18,24-tetrapentyl-1,4,7,10,13,16,19,22-octaazacyclotetracosan-2,5,8,11,14,17,20,23-octaone [4.5] | 1.43 ± 0.66 | – | – | – | – | –
5 | (3R,6S,9R,12S,15R,18S,21R,24S)-1,3,7,9,13,15,19,21-octamethyl-6,12,18,24-tetrapentyl-1,4,7,10,13,16,19,22-octaazacyclotetracosan-2,5,8,11,14,17,20,23-octaone [4.6] | 1.15 ± 0.71 | – | – | – | – | –
6 | (3R,6S,9R,12S,15R,18S,21R,24S)-3,4,7,9,10,13,15,16,19,21,22-undecamethyl-6,12,18,24-tetrapentyl-1-oxa-4,7,10,13,16,19,22-heptaazacyclotetracosan-2,5,8,11,14,17,20,23-octaone | – | – | – | – | – | ring closure, yield after HPLC ([1]; 5.0 mM): 16%
7 | (3R,6S,9R,12S,15R,18S,21R,24S)-3,4,7,9,10,15,16,19,21,22-decamethyl-6,12,18,24-tetrapentyl-1,13-dioxa-4,7,10,16,19,22-hexaazacyclotetracosan-2,5,8,11,14,17,20,23-octaone [3.3] | 0.93 ± 0.45 | 1.00 ± 0.16 | 0.93 ± 0.45 | 0.96 ± 0.42 | 0.96 ± 0.26 | –
8 | (3R,6S,9R,12S,15R,18S,21R,24S)-3,4,9,10,13,15,16,19,21,22-decamethyl-6,12,18,24-tetrapentyl-1,7-dioxa-4,10,13,16,19,22-hexaazacyclotetracosan-2,5,8,11,14,17,20,23-octaone | – | – | – | – | – | ring closure, yield after HPLC ([1]; 2.9 mM): 4%
9 | (3R,6S,9R,12S,15R,18S,21R,24S)-3,4,9,10,13,15,16,19,21,22-decamethyl-6,12,18,24-tetrapentyl-1,7-dioxa-4,10,13,16,19,22-hexaazacyclotetracosan-2,5,8,11,14,17,20,23-octaone [3.2] | 0.99 ± 0.53 | 1.02 ± 0.20 | 0.99 ± 0.53 | 1.03 ± 0.50 | 0.97 ± 0.28 | –
10 | (3R,6S,9R,12S,15R,18S,21R,24S)-3,4,9,10,15,16,19,21,22-nonamethyl-6,12,18,24-tetrapentyl-1,7,13-trioxa-4,10,16,19,22-pentaazacyclotetracosan-2,5,8,11,14,17,20,23-octaone [3.1] | 0.75 ± 0.63 | 0.99 ± 0.20 | 0.75 ± 0.63 | 0.81 ± 0.55 | 0.79 ± 0.29 | Inhibition of RyR2-mediated calcium sparks (in words) [2]: partial inhibition, but less so than analog 2.1; also recorded: measurable activity
11 | (3R,6S,9R,12S,15R,18S,21R,24S)-3,4,9,10,15,16,21,22-octamethyl-6,12,18,24-tetrapentyl-1,7,13-trioxa-4,10,16,19,22-pentaazacyclotetracosan-2,5,8,11,14,17,20,23-octaone [2.1] | 0.60 ± 0.65 | 0.93 ± 0.31 | 0.60 ± 0.65 | 1.04 ± 0.64 | 0.51 ± 0.25 | Inhibition of RyR2-mediated calcium sparks (in words) [2]: modest potency; also recorded: measurable activity
12 | (3R,6S,9R,12S,15R,18S,21R,24S)-3,4,9,10,15,16,21,22-octamethyl-6,12,18,24-tetrapentyl-1,13-dioxa-4,7,10,16,19,22-hexaazacyclotetracosan-2,5,8,11,14,17,20,23-octaone [2.3] | 1.03 ± 0.53 | 0.92 ± 0.19 | 1.03 ± 0.53 | 1.02 ± 0.43 | 1.01 ± 0.20 | –
13 | (3R,6S,9R,12S,15R,18S,21R,24S)-3,4,9,10,15,16,21,22-octamethyl-6,12,18,24-tetrapentyl-1-oxa-4,7,10,13,16,19,22-heptaazacyclotetracosan-2,5,8,11,14,17,20,23-octaone [2.4] | 0.97 ± 0.56 | 1.08 ± 0.22 | 0.97 ± 0.56 | 0.98 ± 0.39 | 0.97 ± 0.17 | –
14 | (3S,6R,9S,12R,15S,18R,21S,24R)-1,4,6,7,10,12,13,16,18,19,24-undecamethyl-3,9,15,21-tetrapentyl-1,4,7,10,13,16,19,22-octaazacyclotetracosan-2,5,8,11,14,17,20,23-octaone [5.2] | 1.08 ± 0.66 | – | – | – | – | –
15 | (3S,6R,9S,12R,15S,18R,21S,24R)-1,4,6,7,10,12,13,18,19,24-decamethyl-3,9,15,21-tetrapentyl-1,4,7,10,13,16,19,22-octaazacyclotetracosan-2,5,8,11,14,17,20,23-octaone [5.3] | 1.23 ± 0.57 | – | – | – | – | –
16 | (3S,6R,9S,12R,15S,18R,21S,24R)-1,4,6,7,12,13,16,18,19,24-decamethyl-3,9,15,21-tetrapentyl-1,4,7,10,13,16,19,22-octaazacyclotetracosan-2,5,8,11,14,17,20,23-octaone [5.4] | 1.14 ± 0.69 | – | – | – | – | –
17 | (3S,6R,9S,12R,15S,18R,21S,24R)-1,4,6,7,12,13,18,19,24-nonamethyl-3,9,15,21-tetrapentyl-1,4,7,10,13,16,19,22-octaazacyclotetracosan-2,5,8,11,14,17,20,23-octaone [5.5] | 1.14 ± 0.65 | – | – | – | – | –
18 | (3S,6R,9S,12R,15S,18R,21S,24R)-1,6,7,12,13,18,19,24-Octamethyl-3,9,15,21-tetrapentyl-1,4,7,10,13,16,19,22-octaazacyclotetracosan-2,5,8,11,14,17,20,23-octaone [2.5] | 1.09 ± 0.46 | 1.17 ± 0.34 | 1.09 ± 0.46 | 1.06 ± 0.35 | 1.04 ± 0.20 | –
